Experimental data from US20200095296A1, “USE OF PEPTIDES AS BIOMARKERS IN THE DIAGNOSIS, CONFIRMATION AND TREATMENT OF A NEUROLOGICAL DISORDER AND TCR AND/OR HLA IMMUNOPROFILING IN NEURODEGENERATIVE DISEASE” (THE TRUSTEES OF COLUMBIA UNIVERSITY IN THE CITY OF NEW YORK, priority 2017, published 2020).
Where a chain is given by its changes, count along the chain named. Like-named read-outs stand apart in the source and are kept apart here.

Legend:
[1] = target: DRB1*07:01 (Homo sapiens, UniProt P01903+P01911, A100R/A102G/A103Q/D57E/D86V/E43K/F76Y/K127E/L162R/M171V/P40G/Q125H/Q99D/R33Q/R42Y/R54Q/S133A/S66F/T210M/V115G/Y107V/Y59L/Y89S); assay: competition binding assay, purified HLA DRB1*07:01
[2] = target: T1, DPB1*02:01 (Homo sapiens, UniProt P04440+P20036, A65V/A84D/A85E/K98E); assay: competition binding assay, purified HLA DPB1*02:01
T1 sequence (P20036 29-260): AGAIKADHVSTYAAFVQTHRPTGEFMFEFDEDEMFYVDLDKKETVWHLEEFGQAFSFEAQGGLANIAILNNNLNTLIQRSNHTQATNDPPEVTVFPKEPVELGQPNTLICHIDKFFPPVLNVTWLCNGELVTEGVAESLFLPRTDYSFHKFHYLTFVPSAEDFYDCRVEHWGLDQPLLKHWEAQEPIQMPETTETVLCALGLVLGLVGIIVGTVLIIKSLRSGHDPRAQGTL
T1 sequence (P04440 30-258 A65V/A84D/A85E/K98E): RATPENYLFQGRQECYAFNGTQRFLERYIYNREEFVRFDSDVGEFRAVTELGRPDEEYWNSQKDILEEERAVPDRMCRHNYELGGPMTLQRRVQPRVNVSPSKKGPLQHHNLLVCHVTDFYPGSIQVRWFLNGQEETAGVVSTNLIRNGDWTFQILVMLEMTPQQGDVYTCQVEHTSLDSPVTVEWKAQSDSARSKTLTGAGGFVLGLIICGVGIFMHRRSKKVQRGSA

[3] = target: DRB1*04:05 (Homo sapiens, UniProt P01903+P01911, A100R/A169T/D86S/F76Y/I96L/K127E/L162R/M171V/N62H/P40V/Q125Y/R42H/S133A/S149N/S66Y/V115G/V209L/W38E); assay: competition binding assay, purified HLA DRB1*04:05
[4] = target: DRB1*11:01 (Homo sapiens, UniProt P01903+P01911, A100R/A169T/A87E/I96F/K41T/L162R/M171V/P40S/Q125H/Q178H/Q39Y/Q99D/R42S/S66Y/T262R/V115G/W38E); assay: competition binding assay, purified HLA DRB1*11:01
[5] = target: DRB3*02:02 (Homo sapiens, UniProt P01903+P79483, A212P/D57E/F66Y/L67A/R103Q/R218S/R40L/S89Y/T80R/V86D/Y55F/Y59H); assay: competition binding assay, purified HLA DRB3*02:02
[6] = target: T2, DPB1*04:02 (Homo sapiens, UniProt P04440+P20036, A65V/A84D/A85E/L207M); assay: competition binding assay, purified HLA DPB1*04:02
T2 sequence (P04440 30-258 A65V/A84D/A85E/L207M): T1 sequence (P04440 30-258 A65V/A84D/A85E/K98E) with E69K, L178M
T2 sequence (P20036 29-260): T1 sequence (P20036 29-260)

[7] = target: T3, DPB1*03:01 (Homo sapiens, UniProt P04440+P20036, A65V/A84D/A85E/E86D/F38Y/G113D/G114E/G40L/I94L/L37V/M105V/M116V/P115A/R125K/T199I); assay: competition binding assay, purified HLA DPB1*03:01
T3 sequence (P20036 29-260): T1 sequence (P20036 29-260)
T3 sequence (P04440 30-258 L37V/F38Y/G40L/A65V/A84D/A85E/E86D/I94L/M105V/G113D/G114E/P115A/M116V/R125K/T199I): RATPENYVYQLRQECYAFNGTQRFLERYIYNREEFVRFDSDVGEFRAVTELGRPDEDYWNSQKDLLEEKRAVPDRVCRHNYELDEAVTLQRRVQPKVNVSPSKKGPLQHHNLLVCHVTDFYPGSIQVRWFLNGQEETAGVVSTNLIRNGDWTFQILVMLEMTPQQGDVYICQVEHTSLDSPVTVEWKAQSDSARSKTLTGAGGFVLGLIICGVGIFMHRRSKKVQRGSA

[8] = target: DRB1*01:01 (Homo sapiens, UniProt P01903+P01911, A100R/D57E/F55L/F60I/F76Y/I96L/L162R/M171V/P40L/Q125E/R42F/V115G/Y59C); assay: competition binding assay, purified HLA DRB1*01:01
[9] = target: DRB1*03:01 (Homo sapiens, UniProt P01903+P01911, A100K/A102G/A103R/A169T/F55Y/I96L/K41T/L162R/M171V/P40S/Q125H/Q178H/Q39Y/R42S/S66N/T106N/T262R/W38E/Y61H); assay: competition binding assay, purified HLA DRB1*03:01
[10] = target: T4, DPB1*04:01 (Homo sapiens, UniProt P04440); assay: competition binding assay, purified HLA DPB1*04:01
T4 sequence (P04440 30-258): T1 sequence (P04440 30-258 A65V/A84D/A85E/K98E) with V36A, D55A, E56A, E69K
T4 sequence (P20036 29-260 partner): T1 sequence (P20036 29-260)

[11] = target: T5, DPB1*05:01 (Homo sapiens, UniProt P04440+P20036, A65V/A84E/F191V/F64L/G113D/G114E/K142R/L158P/M116V/M62Q/P115A/Q81R/R125K/T114A/T199I/T259P/V234M); assay: competition binding assay, purified HLA DPB1*05:01
T5 sequence (P20036 29-260 M62Q/Q81R/T114A/K142R/L158P/F191V/T259P): T1 sequence (P20036 29-260) with M34Q, Q53R, T86A, K114R, L130P, F163V, T231P
T5 sequence (P04440 30-258 F64L/A65V/A84E/G113D/G114E/P115A/M116V/R125K/T199I/V234M): T3 sequence (P04440 30-258 L37V/F38Y/G40L/A65V/A84D/A85E/E86D/I94L/M105V/G113D/G114E/P115A/M116V/R125K/T199I) with V8L, Y9F, L11G, F35L, D55E, E56A, D57E, L65I, V76M, V205M

[12] = purified HLA, radiolabeled peptide competition, nM, read-out: binding to DRB1*07:01 (IC50)
[13] = purified HLA, radiolabeled peptide competition, nM, read-out: binding to DRB1*04:05 (IC50)
[14] = purified HLA, radiolabeled peptide competition, nM, read-out: binding to DRB1*11:01 (IC50)
[15] = purified HLA, radiolabeled peptide competition, nM, read-out: binding to DRB3*02:02 (IC50)
[16] = purified HLA, radiolabeled peptide competition, nM, read-out: binding to DRB1*01:01 (IC50)
[17] = purified HLA, radiolabeled peptide competition, nM, read-out: binding to DRB1*03:01 (IC50)

Row | Structure (SMILES) | IC50 [2] | IC50 [6] | IC50 [7] | IC50 [10] | IC50 [11] | IC50 [1, 12] | IC50 [3, 13] | IC50 [4, 14] | IC50 [5, 15] | IC50 [8, 16] | IC50 [9, 17] | further results
1 | CSCC[C@H](NC(=O)[C@H](CCC(=O)O)NC(=O)[C@H](Cc1ccc(O)cc1)NC(=O)[C@H](C)NC(=O)[C@H](CCC(=O)O)NC(=O)[C@H](CC(N)=O)NC(=O)[C@@H](N)CC(=O)O)C(=O)N1CCC[C@H]1C(=O)N[C@@H](CO)C(=O)N[C@@H](CCC(=O)O)C(=O)N[C@@H](CCC(=O)O)C(=O)NCC(=O)N[C@@H](Cc1ccc(O)cc1)C(=O)N[C@@H](CCC(N)=O)C(=O)N[C@@H](CC(=O)O)C(=O)O | > 10000 nM | > 10000 nM | > 10000 nM | > 10000 nM | > 10000 nM | – | – | – | – | – | – | IC50 [1]: > 10000 nM; IC50 [3]: 1940 nM; IC50 [4]: > 10000 nM; IC50 [5]: > 10000 nM; IC50 [8]: > 10000 nM; IC50 [9]: > 10000 nM
2 | CSCC[C@H](NC(=O)[C@H](CCC(=O)O)NC(=O)[C@H](Cc1ccc(O)cc1)NC(=O)[C@H](C)NC(=O)[C@H](CCC(=O)O)NC(=O)[C@H](CC(N)=O)NC(=O)[C@@H](N)CC(=O)O)C(=O)N1CCC[C@H]1C(=O)N[C@@H](COP(=O)(O)O)C(=O)N[C@@H](CCC(=O)O)C(=O)N[C@@H](CCC(=O)O)C(=O)NCC(=O)N[C@@H](Cc1ccc(O)cc1)C(=O)N[C@@H](CCC(N)=O)C(=O)N[C@@H](CC(=O)O)C(=O)O | – | – | – | – | – | > 10000 nM | > 10000 nM | > 10000 nM | > 10000 nM | > 10000 nM | > 10000 nM | IC50 ([2]; purified HLA, radiolabeled peptide competition, nM, read-out: binding to DPB1*02:01 (IC50)): > 10000 nM; IC50 ([6]; purified HLA, radiolabeled peptide competition, nM, read-out: binding to DPB1*04:02 (IC50)): > 10000 nM; IC50 ([7]; purified HLA, radiolabeled peptide competition, nM, read-out: binding to DPB1*03:01 (IC50)): > 10000 nM; IC50 ([10]; purified HLA, radiolabeled peptide competition, nM, read-out: binding to DPB1*04:01 (IC50)): > 10000 nM; IC50 ([11]; purified HLA, radiolabeled peptide competition, nM, read-out: binding to DPB1*05:01 (IC50)): > 10000 nM
3 | CSCC[C@H](NC(=O)[C@@H](N)CCC(=O)O)C(=O)N1CCC[C@H]1C(=O)N[C@@H](COP(=O)(O)O)C(=O)N[C@@H](CCC(=O)O)C(=O)N[C@@H](CCC(=O)O)C(=O)NCC(=O)N[C@@H](Cc1ccc(O)cc1)C(=O)N[C@@H](CCC(N)=O)C(=O)N[C@@H](CC(=O)O)C(=O)N[C@@H](Cc1ccc(O)cc1)C(=O)N[C@@H](CCC(=O)O)C(=O)N1CCC[C@H]1C(=O)N[C@@H](CCC(=O)O)C(=O)N[C@@H](C)C(=O)O | > 10000 nM | > 10000 nM | > 10000 nM | > 10000 nM | > 10000 nM | > 10000 nM | > 10000 nM | > 10000 nM | > 10000 nM | > 10000 nM | > 10000 nM | –
